Read-outs that look alike come from different tables or passages of the source.
Legend:
CYP3A5 = molecular target: T1, CYP3A5 (Homo sapiens, UniProt P20815); assay: Vivid CYP450 screening kit, CYP3A5; format: biochemical; conditions: 0.015 μg/mL, 20 min incubation, p > 0.05
T1 construct: purchased Thermo Fisher Scientific
Method: Possible inhibitory effect of TP-315 on the catalytic activity of human cytochrome CYP450 enzymes was tested using Vivid CYP450 screening kits (Thermo Fisher Scientific, Waltham, MA, USA) according to the manufacturer’s standard procedure (Vivid BOMCC substrate CYP2B6 blue, Vivid DBOMF substrate CYP3A4 green, Vivid DBOMF substrate CYP3A5 green, Vivid EOMCC substrate CYP2C19 blue, Vivid MOBFC substrate CYP2D6 cyan). The experiment was carried out in the endpoint test mode (reading after 20 min of incubation). The test compound was dissolved in DMSO (starting concentrations, 2.5× concentrated); to avoid the influence of the solvent on the enzyme activity, the results were compared with the solvent control. The influence of TP-315 on the activity of selected enzymes was tested at concentrations of 0.015, 0.1, 0.5, 1, 2.5, 5, and 10 μg/mL. The positive control compounds (inhibitors) were miconazole (for CYP2C19 and CYP2B6), quinidine (for CYP2D6), and ketoconazole (for CYP3A4 and CYP3A5). Inhibitor concentrations were selected according to the manufacturer’s recommendations to achieve ≥90% inhibition. All inhibitors were obtained from Sigma-Aldrich (St. Louis, MO, USA). The BioTek Synergy H1 reader (BioTek Instruments, Inc., USA) was used to read the fluorescence according to the manufacturer’s guidelines. The tests were performed in duplicate.

Albino Swiss mice = assay: Morphological blood parameters after chronic administration; format: in vivo; conditions: 47.6 mg/kg i.p. for 14 days
Method: (§1) The experiments were carried out on adult male Albino Swiss mice weighing 20 ± 5 g. […] The mice from the control group (8 mice) received 0.9% NaCl solution i.p. once daily for 14 days.
After completion of the experimental procedure (on the 15th day—24h after the last injection), the animals were decapitated. Their livers and kidneys were collected for histopathological examination, while blood was drawn for biochemical and morphological tests and for HPLC-FL determination of TP-315 in serum.
For the determination of biochemical parameters (ALT, AST, GGT, creatinine, urea), whole blood was collected in clotting activator tubes (Sarstadt, Nümbrecht, Germany). To obtain serum, blood tubes were centrifuged at 4200 RPM for 10 min. Biochemical determinations were performed on an ERBA XL 640 analyzer (ERBA Mannheim, Germany) according to the manufacturer’s standard procedure. Whole blood for the determination of morphological parameters was collected in ethylenediaminetetraacetic acid (EDTA) tubes (Sarstadt, Nümbrecht, Germany). Morphological parameters were determined on the MYTHIC 18 Cormay analyzer (Cormay, Lublin, Poland) according to the manufacturer’s standard procedure.

[1] = Quantification of TP-315 in mouse serum by HPLC-FL; format: in vivo; conditions: male, Albino Swiss, ip, mice, 47.6 mg/kg i.p. for 14 days, 24 h after the last injection, mean ± SD, read-out: Mean measured concentration of TP-315 in the plasma of the mice
Method: as §1
After completion of the experimental procedure (on the 15th day—24h after the last injection), the animals were decapitated. Their livers and kidneys were collected for histopathological examination, while blood was drawn for biochemical and morphological tests and for HPLC-FL determination of TP-315 in serum. […]
Serum samples for recovery study and quantification of the examined compound using the standard addition method were prepared by spiking 0.1 mL of TP-315 free serum or the serum of treated mice with 0.4 mL deionized water and 0.5 mL of the appropriate standard solution, providing a calibration range between 0.0125–0.05 mg/L (0.0125, 0.025, 0.0375, and 0.05 mg/L) and QC levels of 0.06, 0.12, and 0.18 mg/L. Investigated serum samples were treated in the same manner as the QCs. […]
The HPLC analysis was carried out using an Elite LaChrom HPLC Merck-Hitachi (Merck, Darmstadt, Germany) equipped with a fluorescence detector (L-2485U) and a column thermostat Jetstream 2 Plus (100375, Knauer). […] The fluorescence detection was performed at an excitation of 265 nm and an emission of 411 nm. […]

[2] = test system: maximal electroshock-induced seizure (MES); design: method as in PMID 23291122, PMID 25226229, PMID 25090118; conditions: mice, cited from earlier work

T1 sequence (P20815 whole entry): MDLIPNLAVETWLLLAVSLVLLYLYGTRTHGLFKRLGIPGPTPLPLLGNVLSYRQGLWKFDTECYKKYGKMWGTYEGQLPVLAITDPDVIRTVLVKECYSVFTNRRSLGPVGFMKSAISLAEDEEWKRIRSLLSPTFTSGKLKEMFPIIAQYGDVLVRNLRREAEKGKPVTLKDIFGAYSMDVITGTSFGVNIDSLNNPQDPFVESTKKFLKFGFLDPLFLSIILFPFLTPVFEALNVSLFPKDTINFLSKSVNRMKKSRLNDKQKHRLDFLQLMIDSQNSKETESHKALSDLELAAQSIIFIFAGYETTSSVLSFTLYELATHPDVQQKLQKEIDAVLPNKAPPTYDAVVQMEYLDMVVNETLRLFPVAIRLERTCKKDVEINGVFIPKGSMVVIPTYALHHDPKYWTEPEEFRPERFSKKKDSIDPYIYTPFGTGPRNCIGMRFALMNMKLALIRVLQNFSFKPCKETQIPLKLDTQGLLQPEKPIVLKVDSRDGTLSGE

CCCCCCn1c(-c2cccc(Cl)c2)n[nH]c1=S [TP-315, 5-(3-Chlorophenyl)-4-hexyl-2,4-dihydro-3H-1,2,4-triazole-3-thione]
Inhibition of CYP3A5 activity compared to the control (CYP3A5): did not statistically significantly inhibit
Effect of chronic administration on hematological parameters vs control group (Albino Swiss mice; unpaired t-test p > 0.05): does not cause disturbances in the white blood cell and red cell systems
BAS, basophils (Albino Swiss mice; examined group, mean ± SD): 0.44 ± 0.19%
EOS, eosinophile (Albino Swiss mice; examined group, mean ± SD): 6.54 ± 2.05%
HCT, hematocrit (Albino Swiss mice; examined group, mean ± SD): 41.08 ± 3.65%
HGB, hemoglobin concentration (Albino Swiss mice; examined group, mean ± SD): 13.88 ± 1.28 g/dL
LYM, lymphocytes (Albino Swiss mice; examined group, mean ± SD): 65.7 ± 6.96%
MCH, mean corpuscular hemoglobin (Albino Swiss mice; examined group, mean ± SD): 16.62 ± 0.38 pg
MCHC, mean corpuscular hemoglobin concentration (Albino Swiss mice; examined group, mean ± SD): 33.84 ± 0.46 g/dL
MCV, mean corpuscular volume (Albino Swiss mice; examined group, mean ± SD): 49.1 ± 20.06 µm3
MON, monocytes (Albino Swiss mice; examined group, mean ± SD): 4.04 ± 1.17%
MPV, mean platelet volume (Albino Swiss mice; examined group, mean ± SD): 5.08 ± 0.25 µm3
NEU, neutrophils (Albino Swiss mice; examined group, mean ± SD): 23.28 ± 7.19%
PCT, plateletcrit (Albino Swiss mice; examined group, mean ± SD): 0.53 ± 0.16%
PDW, platelet distribution width (Albino Swiss mice; examined group, mean ± SD): 15.24 ± 0.17
PLT, platelet (Albino Swiss mice; examined group, mean ± SD): 1034.8 ± 268.44 10*3/µL
RBC, red blood cells (Albino Swiss mice; examined group, mean ± SD): 8.37 ± 0.84 10*6/μL
RDW-CV, red blood cell distribution width (Albino Swiss mice; examined group, mean ± SD): 13.46 ± 0.56%
RDW-SD, red blood cell distribution width standard deviation (Albino Swiss mice; examined group, mean ± SD): 28.46 ± 1.36 µm3
WBC, white blood cells (Albino Swiss mice; examined group, mean ± SD): 4.25 ± 1.2 10*3/µL
concentration at 24 h [1]: 14.5 ± 12.5 ng/mL
Anticonvulsant Activity in MES Test ED50 ± S.E. ([2]; pretreatment time 15 min): 47.6 ± 3.8 mg/kg
Anticonvulsant Activity in MES Test ED50 ± S.E. ([2]; pretreatment time 30 min): 68.3 ± 10.3 mg/kg
Anticonvulsant Activity in MES Test ED50 ± S.E. ([2]; pretreatment time 60 min): 98.1 ± 16.4 mg/kg
Anticonvulsant Activity in MES Test ED50 ± S.E. ([2]; pretreatment time 120 min): 159.7 ± 21.7 mg/kg
